The supplement of paper PMC10307832

Key:
Test in all cases: relative viability (nuclei count vs DMSO), 5 days (fraction); higher = more cells survive
[1] = compound: CN1C=C(C2=CC=CC=C21)/C=C\3/C4=C(C=CC=N4)NC3=O + O=C(c1cc(Cc2n[nH]c(=O)c3ccccc23)ccc1F)N1CCN(C(=O)C2CC2)CC1 [Olaparib] (partner 8 µM)
Method in brief: (§1)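 Nuclei were stained with Hoechst during a one-step fixation (final 0.05% Triton X-100, 1% formaldehyde, 1 ug/ml Hoechst) carried out 5 days after dosing, then counted on 4× images. The cells, lung cancer lines in 1536-well plates, had been dosed by pin tool the day after seeding with one drug alone or a fixed anchor-drug dose plus five library-drug doses (not always all listed) in √10 steps. Relative viability is the nuclei count in treated wells divided by that in vehicle wells, and each value is the median of duplicate plates.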

[2] = compound: CN1C=C(C2=CC=CC=C21)/C=C\3/C4=C(C=CC=N4)NC3=O + N=C(N)NC(=N)NCCc1ccccc1 [Phenformin] (partner 250 µM)
Method in brief: as §1

Trametinib + Luminespib = compound: CC(=O)Nc1cccc(-n2c(=O)n(C3CC3)c(=O)c3c(Nc4ccc(I)cc4F)n(C)c(=O)c(C)c32)c1 [Trametinib] + CCNC(=O)c1noc(-c2cc(C(C)C)c(O)cc2O)c1-c1ccc(CN2CCOCC2)cc1 [Luminespib] (partner 0.01 µM)
Method in brief: as §1

[3] = compound: CN1C=C(C2=CC=CC=C21)/C=C\3/C4=C(C=CC=N4)NC3=O + CC1(C)CCC(c2ccc(Cl)cc2)=C(CN2CCN(c3ccc(C(=O)NS(=O)(=O)c4ccc(N[C@H](CCN5CCOCC5)CSc5ccccc5)c(S(=O)(=O)C(F)(F)F)c4)cc3)CC2)C1 [Navitoclax] (partner 0.5 µM)
Method in brief: as §1

## UMC-11
[1]; first compound 0.02 µM
  relative viability: 0.461
[1]; first compound 0.06325 µM
  relative viability: 0.333
[1]; first compound 0.2 µM
  relative viability: 0.356
[1]; first compound 0.6325 µM
  relative viability: 0.381
[1]; first compound 2 µM
  relative viability: 0.47
[2]; first compound 0.02 µM
  relative viability: 0.299
[2]; first compound 0.06325 µM
  relative viability: 0.306
[2]; first compound 0.2 µM
  relative viability: 0.265
[2]; first compound 0.6325 µM
  relative viability: 0.369
[2]; first compound 2 µM
  relative viability: 0.34
Trametinib + Luminespib; first compound 0.0025 µM
  relative viability: 1.05
Trametinib + Luminespib; first compound 0.007906 µM
  relative viability: 1.08
Trametinib + Luminespib; first compound 0.025 µM
  relative viability: 0.951
Trametinib + Luminespib; first compound 0.07906 µM
  relative viability: 1.04
Trametinib + Luminespib; first compound 0.25 µM
  relative viability: 0.945
[3]; first compound 0.02 µM
  relative viability: 0.24
[3]; first compound 0.06325 µM
  relative viability: 0.318
[3]; first compound 0.2 µM
  relative viability: 0.288
[3]; first compound 0.6325 µM
  relative viability: 0.362
[3]; first compound 2 µM
  relative viability: 0.391
